{"source": "patent US10457691B2", "about": "“Macrocyclic kinase inhibitors and uses thereof” (Dana-Farber Cancer Institute, Inc., priority 2014, dated 2019)", "type_in_all_cases": "biochemical", "key": {"[1]": {"target": "PKD1 (Homo sapiens, UniProt Q15139)", "assay": "Protein kinase assay ([γ-32P] ATP), PKD1", "conditions": "read-out: Activity of the protein kinase when treated with compound I-1 (% control)", "procedure": "(§1) In another set of experiments, the activities of the compounds described herein against various protein kinases were determined according to the methods reported in Hastie et al., Nature Protocols, 2006, 1, 968-971.\n(§2) Enzyme dilution buffer. This buffer consisted of 50 mM Tris-HCl, pH 7.5, 0.1 mM EGTA, 1 mg ml^−1 bovine serum albumin and 0.1% (vol/vol) 2-mercaptoethanol.\n(§3) 10× concentrated assay buffer. An assay buffer of 500 mM Tris-HCl, pH 7.5, 1 mM EGTA, and 100 mM magnesium acetate was used for assay of a wide variety of protein kinases. In some experiments, other cofactors were included (e.g., calcium ions and calmodulin were included for assay of calcium-calmodulindependent protein kinases).\n(§4) 1 mM [γ-^32P] ATP. The specific activity of the [γ-^32P] ATP solution was 1×10^5 to 1×10^6 c.p.m. per nmol depending on what was needed to produce an optimal signal/noise ratio. […] To measure the concentration of ATP, a sample of such a stock solution was diluted to 20 μM, and the absorbance of the diluted sample was measured at 259 nm. The absorbance of a 20-μM stock solution of ATP at 259 nm was about 0.31. […] ATP to produce a radioactivity of 1×10^5 to 1×10^6 c.p.m. per nmol. […]\n(§5) 13) Measure radioactivity in the samples by Cerenkov counting (e.g., without liquid scintillation fluid) in a liquid scintillation counter using a “^32P program”. […]"}, "[2]": {"target": "MNK1 (Homo sapiens, UniProt Q9BUB5)", "sequence (Q9BUB5 whole entry)": "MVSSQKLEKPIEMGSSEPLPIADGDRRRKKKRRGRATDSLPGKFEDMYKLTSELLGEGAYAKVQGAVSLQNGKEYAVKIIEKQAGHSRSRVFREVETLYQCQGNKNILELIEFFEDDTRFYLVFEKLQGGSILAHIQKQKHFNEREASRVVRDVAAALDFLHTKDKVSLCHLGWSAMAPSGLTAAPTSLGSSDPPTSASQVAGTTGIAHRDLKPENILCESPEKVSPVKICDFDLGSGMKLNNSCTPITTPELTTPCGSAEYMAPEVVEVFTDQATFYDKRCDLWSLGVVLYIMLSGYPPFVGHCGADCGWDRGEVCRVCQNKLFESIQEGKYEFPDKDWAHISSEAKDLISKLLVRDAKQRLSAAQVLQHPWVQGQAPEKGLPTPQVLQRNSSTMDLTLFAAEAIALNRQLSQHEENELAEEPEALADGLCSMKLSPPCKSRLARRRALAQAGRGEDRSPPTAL", "assay": "Protein kinase assay ([γ-32P] ATP), MNK1", "conditions": "read-out: Activity of the protein kinase when treated with compound I-1 (% control)", "procedure": "as §1, §2, §3, §4, §5"}, "[3]": {"target": "S6K1 (Homo sapiens, UniProt P23443)", "assay": "Protein kinase assay ([γ-32P] ATP), S6K1", "conditions": "read-out: Activity of the protein kinase when treated with compound I-1 (% control)", "procedure": "as §1, §2, §3, §4, §5"}, "[4]": {"target": "RIPK2 (Homo sapiens, UniProt O43353)", "sequence (O43353 whole entry, species assumed)": "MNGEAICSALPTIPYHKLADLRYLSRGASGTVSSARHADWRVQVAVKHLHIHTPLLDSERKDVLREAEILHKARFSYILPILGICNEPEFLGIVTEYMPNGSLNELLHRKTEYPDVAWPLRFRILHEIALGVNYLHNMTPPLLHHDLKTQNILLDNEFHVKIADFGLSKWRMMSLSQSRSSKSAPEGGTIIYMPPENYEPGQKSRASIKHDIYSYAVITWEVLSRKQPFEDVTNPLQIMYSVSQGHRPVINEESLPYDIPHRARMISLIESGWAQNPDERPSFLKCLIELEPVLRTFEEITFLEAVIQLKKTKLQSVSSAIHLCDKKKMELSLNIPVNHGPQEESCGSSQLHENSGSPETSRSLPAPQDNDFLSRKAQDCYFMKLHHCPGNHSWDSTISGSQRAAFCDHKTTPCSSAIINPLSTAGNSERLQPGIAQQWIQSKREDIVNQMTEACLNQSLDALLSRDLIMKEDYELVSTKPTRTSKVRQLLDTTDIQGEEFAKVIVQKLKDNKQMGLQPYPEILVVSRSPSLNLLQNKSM", "assay": "Protein kinase assay ([γ-32P] ATP), RIPK2", "conditions": "read-out: Activity of the protein kinase when treated with compound I-1 (% control)", "procedure": "as §1, §2, §3, §4, §5"}, "[5]": {"tested_on": "PHK", "assay": "Protein kinase assay ([γ-32P] ATP), PHK", "procedure": "as §1, §2, §3, §4, §5"}, "[6]": {"target": "MLK1 (Homo sapiens, UniProt P80192)", "sequence (P80192 whole entry)": "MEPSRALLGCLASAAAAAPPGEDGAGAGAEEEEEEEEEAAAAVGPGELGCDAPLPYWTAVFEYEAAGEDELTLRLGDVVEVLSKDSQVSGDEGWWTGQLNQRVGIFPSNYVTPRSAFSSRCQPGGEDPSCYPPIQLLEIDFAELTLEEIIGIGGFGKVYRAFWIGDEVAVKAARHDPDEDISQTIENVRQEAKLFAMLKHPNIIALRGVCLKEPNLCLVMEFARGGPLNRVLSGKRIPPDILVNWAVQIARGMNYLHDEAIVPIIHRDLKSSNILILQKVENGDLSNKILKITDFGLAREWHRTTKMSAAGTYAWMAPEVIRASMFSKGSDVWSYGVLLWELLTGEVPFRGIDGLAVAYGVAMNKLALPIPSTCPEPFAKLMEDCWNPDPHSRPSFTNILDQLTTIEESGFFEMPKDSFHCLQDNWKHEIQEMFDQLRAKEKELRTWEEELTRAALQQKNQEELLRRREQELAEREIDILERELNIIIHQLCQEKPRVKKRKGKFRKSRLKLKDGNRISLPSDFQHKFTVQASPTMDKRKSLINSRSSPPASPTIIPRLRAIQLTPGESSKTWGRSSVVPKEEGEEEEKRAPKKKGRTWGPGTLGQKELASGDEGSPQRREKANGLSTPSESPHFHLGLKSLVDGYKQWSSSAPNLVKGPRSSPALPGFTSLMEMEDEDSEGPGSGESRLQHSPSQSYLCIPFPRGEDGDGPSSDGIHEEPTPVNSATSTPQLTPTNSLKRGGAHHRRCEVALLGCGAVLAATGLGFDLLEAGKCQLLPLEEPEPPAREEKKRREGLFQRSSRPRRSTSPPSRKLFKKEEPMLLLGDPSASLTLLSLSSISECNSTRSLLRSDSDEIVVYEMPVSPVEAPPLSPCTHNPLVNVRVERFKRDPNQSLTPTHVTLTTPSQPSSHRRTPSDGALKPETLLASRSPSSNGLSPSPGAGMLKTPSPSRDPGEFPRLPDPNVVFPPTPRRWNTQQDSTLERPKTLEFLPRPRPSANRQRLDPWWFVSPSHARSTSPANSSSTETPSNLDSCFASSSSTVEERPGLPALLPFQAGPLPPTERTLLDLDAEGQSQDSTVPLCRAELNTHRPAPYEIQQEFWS", "assay": "Protein kinase assay ([γ-32P] ATP), MLK1", "conditions": "read-out: Activity of the protein kinase when treated with compound I-1 (% control)", "procedure": "as §1, §2, §3, §4, §5"}, "[7]": {"target": "TESK1 (Homo sapiens, UniProt Q15569)", "assay": "Protein kinase assay ([γ-32P] ATP), TESK1", "conditions": "read-out: Activity of the protein kinase when treated with compound I-1 (% control)", "procedure": "as §1, §2, §3, §4, §5"}, "[8]": {"target": "GCK (Homo sapiens, UniProt Q12851)", "assay": "Protein kinase assay ([γ-32P] ATP), GCK", "conditions": "read-out: Activity of the protein kinase when treated with compound I-1 (% control)", "procedure": "as §1, §2, §3, §4, §5"}, "[9]": {"target": "p38b MAPK (Homo sapiens, UniProt Q15759)", "assay": "Protein kinase assay ([γ-32P] ATP), p38b MAPK", "conditions": "read-out: Activity of the protein kinase when treated with compound I-1 (% control)", "procedure": "as §1, §2, §3, §4, §5"}, "[10]": {"target": "VEG-FR (Homo sapiens, UniProt P17948)", "sequence (P17948 784-1338 limits assumed)": "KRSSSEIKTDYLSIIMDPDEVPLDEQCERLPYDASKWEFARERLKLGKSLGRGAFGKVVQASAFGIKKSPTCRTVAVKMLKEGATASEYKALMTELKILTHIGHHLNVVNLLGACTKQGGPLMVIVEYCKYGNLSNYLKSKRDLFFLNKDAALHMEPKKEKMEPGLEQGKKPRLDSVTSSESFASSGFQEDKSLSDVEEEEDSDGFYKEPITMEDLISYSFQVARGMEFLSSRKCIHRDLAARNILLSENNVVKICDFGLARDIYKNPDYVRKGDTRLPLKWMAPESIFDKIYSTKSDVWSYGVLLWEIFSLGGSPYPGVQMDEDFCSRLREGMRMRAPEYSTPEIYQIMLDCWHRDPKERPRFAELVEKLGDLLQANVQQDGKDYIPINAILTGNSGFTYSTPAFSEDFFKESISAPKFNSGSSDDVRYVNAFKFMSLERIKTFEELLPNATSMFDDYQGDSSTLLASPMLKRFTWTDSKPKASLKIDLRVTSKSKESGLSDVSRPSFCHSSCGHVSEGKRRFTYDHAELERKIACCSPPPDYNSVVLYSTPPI", "assay": "Protein kinase assay ([γ-32P] ATP), VEG-FR", "conditions": "read-out: Activity of the protein kinase when treated with compound I-1 (% control)", "procedure": "as §1, §2, §3, §4, §5"}, "[11]": {"target": "PKBa (Homo sapiens, UniProt P31749)", "sequence (P31749 whole entry)": "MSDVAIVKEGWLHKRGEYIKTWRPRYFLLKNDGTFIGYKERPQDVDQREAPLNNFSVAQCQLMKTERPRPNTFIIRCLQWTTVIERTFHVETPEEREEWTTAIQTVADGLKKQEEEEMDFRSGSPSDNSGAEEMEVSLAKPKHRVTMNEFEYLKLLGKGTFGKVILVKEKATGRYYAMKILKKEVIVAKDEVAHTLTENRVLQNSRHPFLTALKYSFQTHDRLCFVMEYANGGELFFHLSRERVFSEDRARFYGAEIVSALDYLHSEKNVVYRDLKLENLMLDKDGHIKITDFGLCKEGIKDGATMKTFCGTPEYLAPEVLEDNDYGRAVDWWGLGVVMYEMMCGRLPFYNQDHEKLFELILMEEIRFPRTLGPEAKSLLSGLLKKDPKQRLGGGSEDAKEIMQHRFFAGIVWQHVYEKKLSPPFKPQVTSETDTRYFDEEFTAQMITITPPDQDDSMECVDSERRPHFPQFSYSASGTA", "assay": "Protein kinase assay ([γ-32P] ATP), PKBa", "conditions": "read-out: Activity of the protein kinase when treated with compound I-1 (% control)", "procedure": "as §1, §2, §3, §4, §5"}, "[12]": {"target": "MARK2 (Homo sapiens, UniProt Q7KZI7)", "assay": "Protein kinase assay ([γ-32P] ATP), MARK2", "conditions": "read-out: Activity of the protein kinase when treated with compound I-1 (% control)", "procedure": "as §1, §2, §3, §4, §5"}, "[13]": {"target": "CDK2-Cyclin A (Homo sapiens, UniProt P24941)", "assay": "Protein kinase assay ([γ-32P] ATP), CDK2-Cyclin A", "conditions": "read-out: Activity of the protein kinase when treated with compound I-1 (% control)", "procedure": "as §1, §2, §3, §4, §5"}, "[14]": {"target": "MARK3 (Homo sapiens, UniProt P27448)", "sequence (P27448 whole entry)": "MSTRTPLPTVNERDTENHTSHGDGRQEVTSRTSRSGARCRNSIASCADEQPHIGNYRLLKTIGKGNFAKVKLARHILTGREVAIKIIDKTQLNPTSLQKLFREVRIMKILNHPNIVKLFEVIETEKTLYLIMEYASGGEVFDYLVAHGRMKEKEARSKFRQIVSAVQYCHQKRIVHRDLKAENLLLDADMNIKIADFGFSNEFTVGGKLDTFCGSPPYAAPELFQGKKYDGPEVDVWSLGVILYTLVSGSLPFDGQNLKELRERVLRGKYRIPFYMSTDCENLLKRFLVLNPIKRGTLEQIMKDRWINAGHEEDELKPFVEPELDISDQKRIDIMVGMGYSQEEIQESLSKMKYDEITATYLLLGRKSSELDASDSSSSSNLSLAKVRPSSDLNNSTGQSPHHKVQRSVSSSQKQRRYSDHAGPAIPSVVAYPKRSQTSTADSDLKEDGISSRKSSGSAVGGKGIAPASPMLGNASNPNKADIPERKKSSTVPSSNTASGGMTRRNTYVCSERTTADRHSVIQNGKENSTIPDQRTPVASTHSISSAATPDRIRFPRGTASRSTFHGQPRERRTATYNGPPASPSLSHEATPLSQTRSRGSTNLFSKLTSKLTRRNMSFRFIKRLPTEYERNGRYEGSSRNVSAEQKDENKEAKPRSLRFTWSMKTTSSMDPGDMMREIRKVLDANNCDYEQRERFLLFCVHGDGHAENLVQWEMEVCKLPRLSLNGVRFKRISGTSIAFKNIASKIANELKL", "assay": "Protein kinase assay ([γ-32P] ATP), MARK3", "conditions": "read-out: Activity of the protein kinase when treated with compound I-1 (% control)", "procedure": "as §1, §2, §3, §4, §5"}, "[15]": {"tested_on": "AMPK", "assay": "Protein kinase assay ([γ-32P] ATP), AMPK", "procedure": "as §1, §2, §3, §4, §5"}, "[16]": {"target": "PRK2 (Homo sapiens, UniProt Q16513)", "assay": "Protein kinase assay ([γ-32P] ATP), PRK2", "conditions": "read-out: Activity of the protein kinase when treated with compound I-1 (% control)", "procedure": "as §1, §2, §3, §4, §5"}, "[17]": {"target": "CDK9-Cyclin T1 (Homo sapiens, UniProt P50750)", "sequence (P50750 whole entry)": "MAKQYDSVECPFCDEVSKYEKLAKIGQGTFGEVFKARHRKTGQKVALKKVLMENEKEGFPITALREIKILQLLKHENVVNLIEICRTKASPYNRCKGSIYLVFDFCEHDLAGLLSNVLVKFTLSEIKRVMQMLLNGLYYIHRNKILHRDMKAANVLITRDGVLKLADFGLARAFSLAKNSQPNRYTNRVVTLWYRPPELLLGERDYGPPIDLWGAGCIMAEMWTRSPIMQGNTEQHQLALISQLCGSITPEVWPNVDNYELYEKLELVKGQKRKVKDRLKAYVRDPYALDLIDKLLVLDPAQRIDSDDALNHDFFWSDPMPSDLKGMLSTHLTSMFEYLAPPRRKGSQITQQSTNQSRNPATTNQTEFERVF", "sequence (O60563 whole entry partner)": "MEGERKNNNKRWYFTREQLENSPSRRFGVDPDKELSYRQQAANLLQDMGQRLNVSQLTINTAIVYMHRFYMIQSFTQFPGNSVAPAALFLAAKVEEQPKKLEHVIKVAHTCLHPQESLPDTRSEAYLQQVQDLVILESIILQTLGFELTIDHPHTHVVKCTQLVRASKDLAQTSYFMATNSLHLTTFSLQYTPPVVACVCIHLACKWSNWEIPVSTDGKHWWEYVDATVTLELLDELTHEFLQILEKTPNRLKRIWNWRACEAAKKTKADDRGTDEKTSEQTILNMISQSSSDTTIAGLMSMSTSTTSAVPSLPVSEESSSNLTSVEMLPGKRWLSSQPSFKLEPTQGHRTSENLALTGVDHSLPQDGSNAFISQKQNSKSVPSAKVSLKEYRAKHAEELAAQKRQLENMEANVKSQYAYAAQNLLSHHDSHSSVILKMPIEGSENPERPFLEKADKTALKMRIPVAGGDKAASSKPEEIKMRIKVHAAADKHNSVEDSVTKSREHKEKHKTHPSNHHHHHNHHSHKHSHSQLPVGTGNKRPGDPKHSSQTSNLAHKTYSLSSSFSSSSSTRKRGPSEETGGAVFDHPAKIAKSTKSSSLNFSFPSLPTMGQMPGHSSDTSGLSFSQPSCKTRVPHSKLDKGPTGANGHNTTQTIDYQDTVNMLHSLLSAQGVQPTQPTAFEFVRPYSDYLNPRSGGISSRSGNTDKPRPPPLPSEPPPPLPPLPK", "assay": "Protein kinase assay ([γ-32P] ATP), CDK9-Cyclin T1", "conditions": "read-out: Activity of the protein kinase when treated with compound I-1 (% control)", "procedure": "as §1, §2, §3, §4, §5"}, "[18]": {"conditions": "0.1 μM of compound I-1, DMSO control = 100%"}, "[19]": {"conditions": "1 μM of compound I-1, DMSO control = 100%"}}, "data": [{"smiles": "Cc1cccc(C)c1NC(=O)N1C/C=C\\COc2cccc(c2)Nc2cc1ncn2", "note": "[Compound I-1]", "values": [{"measurement": "remaining activity at 0.1 µM", "setting": "[1]; [18]", "result": 63, "unit": "%"}, {"measurement": "remaining activity at 1 µM", "setting": "[1]; [19]", "result": 29, "unit": "%"}, {"measurement": "remaining activity at 0.1 µM", "setting": "[2]; [18]", "result": 105, "unit": "%"}, {"measurement": "remaining activity at 1 µM", "setting": "[2]; [19]", "result": 90, "unit": "%"}, {"measurement": "remaining activity at 0.1 µM", "setting": "[3]; [18]", "result": 105, "unit": "%"}, {"measurement": "remaining activity at 1 µM", "setting": "[3]; [19]", "result": 83, "unit": "%"}, {"measurement": "remaining activity at 0.1 µM", "setting": "[4]; [18]", "result": 33, "unit": "%"}, {"measurement": "remaining activity at 1 µM", "setting": "[4]; [19]", "result": 5, "unit": "%"}, {"measurement": "Activity of the protein kinase when treated with compound I-1 (% control)", "setting": "[5]; [18]", "result": 88, "unit": "% control"}, {"measurement": "Activity of the protein kinase when treated with compound I-1 (% control)", "setting": "[5]; [19]", "result": 100, "unit": "% control"}, {"measurement": "remaining activity at 0.1 µM", "setting": "[6]; [18]", "result": 60, "unit": "%"}, {"measurement": "remaining activity at 1 µM", "setting": "[6]; [19]", "result": 17, "unit": "%"}, {"measurement": "remaining activity at 0.1 µM", "setting": "[7]; [18]", "result": 40, "unit": "%"}, {"measurement": "remaining activity at 1 µM", "setting": "[7]; [19]", "result": 21, "unit": "%"}, {"measurement": "remaining activity at 0.1 µM", "setting": "[8]; [18]", "result": 71, "unit": "%"}, {"measurement": "remaining activity at 1 µM", "setting": "[8]; [19]", "result": 16, "unit": "%"}, {"measurement": "remaining activity at 0.1 µM", "setting": "[9]; [18]", "result": 83, "unit": "%"}, {"measurement": "remaining activity at 1 µM", "setting": "[9]; [19]", "result": 29, "unit": "%"}, {"measurement": "remaining activity at 0.1 µM", "setting": "[10]; [18]", "result": 49, "unit": "%"}, {"measurement": "remaining activity at 1 µM", "setting": "[10]; [19]", "result": 7, "unit": "%"}, {"measurement": "remaining activity at 0.1 µM", "setting": "[11]; [18]", "result": 99, "unit": "%"}, {"measurement": "remaining activity at 1 µM", "setting": "[11]; [19]", "result": 86, "unit": "%"}, {"measurement": "remaining activity at 0.1 µM", "setting": "[12]; [18]", "result": 102, "unit": "%"}, {"measurement": "remaining activity at 1 µM", "setting": "[12]; [19]", "result": 71, "unit": "%"}, {"measurement": "remaining activity at 0.1 µM", "setting": "[13]; [18]", "result": 107, "unit": "%"}, {"measurement": "remaining activity at 1 µM", "setting": "[13]; [19]", "result": 84, "unit": "%"}, {"measurement": "remaining activity at 0.1 µM", "setting": "[14]; [18]", "result": 90, "unit": "%"}, {"measurement": "remaining activity at 1 µM", "setting": "[14]; [19]", "result": 67, "unit": "%"}, {"measurement": "Activity of the protein kinase when treated with compound I-1 (% control)", "setting": "[15]; [18]", "result": 96, "unit": "% control"}, {"measurement": "Activity of the protein kinase when treated with compound I-1 (% control)", "setting": "[15]; [19]", "result": 91, "unit": "% control"}, {"measurement": "remaining activity at 0.1 µM", "setting": "[16]; [18]", "result": 112, "unit": "%"}, {"measurement": "remaining activity at 1 µM", "setting": "[16]; [19]", "result": 87, "unit": "%"}, {"measurement": "remaining activity at 0.1 µM", "setting": "[17]; [18]", "result": 116, "unit": "%"}, {"measurement": "remaining activity at 1 µM", "setting": "[17]; [19]", "result": 92, "unit": "%"}]}]}
